US11466326B2, “Methods and kit for diagnosing and treating colorectal cancer based on AvrA and Wnt1” (The Board of Trustees of the University of Illinois, priority 2018, dated 2022)
Peptide text beside a SMILES is read from it. * marks the point of attachment. Cbz = O=C(OCc1ccccc1)*

How the values were obtained:
Wnt1 protein [1] = assay: Wnt1 protein level after Salmonella infection in the presence of a proteasome inhibitor; assay type: cell-based, human; details: in the presence of MG132; compared with control cells without treatment
Procedure: (§1) Western Blot Analysis of Cell Line Proteins. Infected or control cells were rinsed twice in ice-cold HESS and lysed in protein loading buffer (50 mM Tris, pH 6.8, 100 mM dithiothreitol, 2% SDS, 0.1% bromophenol blue, and 10% glycerol). Equal amounts of protein were separated by SDS-polyacrylamide gel electrophoresis, transferred to nitrocellulose membranes, and analyzed by immunoblotting with anti-Wnt1 and anti-β-actin antibodies (Bioworld). The signals were visualized and quantitated using LI-COR Odyssey v3.0 software after probing the membranes with an infrared-conjugated secondary antibody.

Wnt1 protein [2] = assay: Wnt1 protein level by immunoblot after LPS treatment of human epithelial cells; assay type: cell-based; details: cells treated with LPS, total cell lysates
Procedure: as §1

Compound | Wnt1 protein levels after Salmonella infection (Wnt1 protein [1]) | change in Wnt1 expression (decrease as seen with Salmonella) (Wnt1 protein [2])
CC(C)C[C@@H](C=O)NC(=O)[C@H](CC(C)C)NC(=O)[C@H](CC(C)C)NC(=O)OCc1ccccc1 [MG132] (Cbz-Leu-Leu-Leu-aldehyde) | stabilized | 
lipopolysaccharide [LPS] |  | not observed
